Reference: ChEMBL document CHEMBL1201862, “PubChem BioAssay data set” (2004)
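1) Cells in 96-well plates. 2) Compound, 48 h, 5 concentrations. 3) Linear interpolation between surrounding doses. 4) Unreached endpoint = highest concentration. GI50: concentration for 50% inhibition of growth.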 The source made the active and inactive calls. Rule as the data show it: active = GI50 up to about 1.1 µM and inactive = higher.

Columns and labels:
Assay in all cases: inhibition of tumour cell growth, NCI panel, 48 h
786-0 = tested on: 786-0
A549 = tested on: A549
CAKI-1 = tested on: CAKI-1
COLO 205 = tested on: COLO 205
DU-145 = tested on: DU-145
EKVX = tested on: EKVX
HCC 2998 = tested on: HCC 2998
HCT-15 = tested on: HCT-15
HL-60 = tested on: HL-60
HOP-62 = tested on: HOP-62
HT-29 = tested on: HT-29
IGROV-1 = tested on: IGROV-1
K562 = tested on: K562
KM12 = tested on: KM12
M14 = tested on: M14
MCF7 = tested on: MCF7
MDA-MB-231 = tested on: MDA-MB-231
MDA-N = tested on: MDA-N
MOLT-4 = tested on: MOLT-4
Malme-3M = tested on: Malme-3M
NCI-H23 = tested on: NCI-H23
OVCAR-8 = tested on: OVCAR-8
PC-3 = tested on: PC-3
RPMI-8226 = tested on: RPMI-8226
RXF 393 = tested on: RXF 393
SF-268 = tested on: SF-268
SF-295 = tested on: SF-295
SK-MEL-28 = tested on: SK-MEL-28
SK-MEL-5 = tested on: SK-MEL-5
SK-OV-3 = tested on: SK-OV-3
SN12C = tested on: SN12C
SNB-75 = tested on: SNB-75
SR = tested on: SR
SW-620 = tested on: SW-620
T47D = tested on: T47D
TK-10 = tested on: TK-10
UACC-257 = tested on: UACC-257
UACC-62 = tested on: UACC-62
A498 = tested on: A498
ACHN = tested on: ACHN
CCRF-CEM = tested on: CCRF-CEM
HCT-116 = tested on: HCT-116
HOP-92 = tested on: HOP-92
Hs-578T = tested on: Hs-578T
LOX IMVI = tested on: LOX IMVI
MDA-MB-435 = tested on: MDA-MB-435
NCI-H226 = tested on: NCI-H226
NCI-H522 = tested on: NCI-H522
NCI/ADR-RES = tested on: NCI/ADR-RES
OVCAR-3 = tested on: OVCAR-3
OVCAR-4 = tested on: OVCAR-4
OVCAR-5 = tested on: OVCAR-5
SK-MEL-2 = tested on: SK-MEL-2
SNB-19 = tested on: SNB-19
U-251 = tested on: U-251
UO-31 = tested on: UO-31
NCI-H460 = tested on: NCI-H460
SF-539 = tested on: SF-539

In the case of `Clc1ccc(/C=N/Nc2nnc3c4ccccc4c4ncccc4c3n2)cc1`, the GI50 (786-0) is reported as > 10 µM (inactive), the GI50 (A549) is reported as > 10 µM (inactive) and the GI50 (CAKI-1) is reported as > 10 µM (inactive). The GI50 (COLO 205) was > 10 µM (inactive), the GI50 (DU-145) was > 10 µM (inactive) and the GI50 (EKVX) was > 10 µM (inactive). For the same molecule, the GI50 (HCC 2998) was > 10 µM (inactive), the GI50 (HCT-15) was greater than 10 µM and the GI50 (HL-60) was > 10 µM (inactive). The GI50 (HOP-62) was > 10 µM (inactive), the GI50 (HT-29) was > 10 µM (inactive) and the GI50 (IGROV-1) was > 10 µM (inactive). For the same molecule, the GI50 (K562) was > 10 µM (inactive), the GI50 (KM12) was > 10 µM (inactive) and the GI50 (M14) was > 10 µM (inactive). For the same molecule, the GI50 (MCF7) was > 10 µM (inactive), the GI50 (MDA-MB-231) was > 10 µM (inactive) and the GI50 (MDA-N) was > 10 µM (inactive). The GI50 (MOLT-4) was > 10 µM (inactive), the GI50 (Malme-3M) was > 10 µM (inactive) and the GI50 (NCI-H23) was > 10 µM (inactive). The GI50 (OVCAR-8) was > 10 µM (inactive), the GI50 (PC-3) was > 10 µM (inactive) and the GI50 (RPMI-8226) was > 10 µM (inactive). The GI50 (RXF 393) was > 10 µM (inactive), the GI50 (SF-268) was > 10 µM (inactive) and the GI50 (SF-295) was > 10 µM (inactive). The GI50 (SK-MEL-28) was > 10 µM (inactive), the GI50 (SK-MEL-5) was > 10 µM (inactive) and the GI50 (SK-OV-3) was > 10 µM (inactive). For the same molecule, the GI50 (SN12C) was > 10 µM (inactive), the GI50 (SNB-75) was > 10 µM (inactive) and the GI50 (SR) was > 10 µM (inactive). The GI50 (SW-620) was > 10 µM (inactive), the GI50 (T47D) was > 10 µM (inactive) and the GI50 (TK-10) was > 10 µM (inactive). The GI50 (UACC-257) was > 10 µM (inactive) and the GI50 (UACC-62) was > 10 µM (inactive).
In the case of `COc1ccc(/C=C2\N=C(SC)N(CN3CCOCC3)C2=O)cc1`, the GI50 (786-0) is reported as 70.6 µM (inactive), the GI50 (A498) is reported as 34 µM (inactive) and the GI50 (A549) is reported as 65.3 µM (inactive). The GI50 (ACHN) was 43.3 µM (inactive), the GI50 (CCRF-CEM) was 21.2 µM (inactive) and the GI50 (COLO 205) was 36.3 µM (inactive). For the same molecule, the GI50 (DU-145) was 65.9 µM (inactive), the GI50 (EKVX) was 55.2 µM (inactive) and the GI50 (HCT-116) was 33.1 µM (inactive). The GI50 (HCT-15) was 30.7 µM, the GI50 (HL-60) was 56.9 µM (inactive) and the GI50 (HOP-62) was 69.7 µM (inactive). For the same molecule, the GI50 (HOP-92) was 5.38 µM (inactive), the GI50 (HT-29) was 27.5 µM (inactive) and the GI50 (Hs-578T) was 59.2 µM (inactive). The GI50 (IGROV-1) was 37.5 µM (inactive), the GI50 (K562) was 39 µM (inactive) and the GI50 (KM12) was 78.3 µM (inactive). For the same molecule, the GI50 (LOX IMVI) was 37.2 µM (inactive), the GI50 (M14) was 55 µM (inactive) and the GI50 (MCF7) was 16 µM (inactive). The GI50 (MDA-MB-231) was > 100 µM (inactive), the GI50 (MDA-MB-435) was 74.8 µM (inactive) and the GI50 (MDA-N) was 71.1 µM (inactive). For the same molecule, the GI50 (MOLT-4) was 36.4 µM (inactive), the GI50 (Malme-3M) was 72.6 µM (inactive) and the GI50 (NCI-H226) was 29.2 µM (inactive). For the same molecule, the GI50 (NCI-H23) was > 100 µM (inactive), the GI50 (NCI-H522) was 82.8 µM (inactive) and the GI50 (NCI/ADR-RES) was 80.9 µM (inactive). For the same molecule, the GI50 (OVCAR-3) was 90.6 µM (inactive), the GI50 (OVCAR-4) was 18.6 µM (inactive) and the GI50 (OVCAR-5) was > 100 µM (inactive). The GI50 (OVCAR-8) was 48.2 µM (inactive), the GI50 (PC-3) was 49.2 µM (inactive) and the GI50 (RPMI-8226) was 24.8 µM (inactive). The GI50 (SF-268) was 48 µM (inactive), the GI50 (SF-295) was 98.9 µM (inactive) and the GI50 (SK-MEL-28) was > 100 µM (inactive). For the same molecule, the GI50 (SK-MEL-2) was > 100 µM (inactive), the GI50 (SK-MEL-5) was 47.3 µM (inactive) and the GI50 (SK-OV-3) was > 100 µM (inactive). The GI50 (SN12C) was > 100 µM (inactive), the GI50 (SNB-19) was 84.5 µM (inactive) and the GI50 (SNB-75) was 60.7 µM (inactive). The GI50 (SR) was 30.8 µM (inactive), the GI50 (SW-620) was 22 µM (inactive) and the GI50 (TK-10) was 56.5 µM (inactive). The GI50 (U-251) was 51.6 µM (inactive), the GI50 (UACC-62) was 40.2 µM (inactive) and the GI50 (UO-31) was 49.8 µM (inactive).
In the case of `NC1=C(N2CCOCC2)C(=O)NC2=N/C(=C\c3ccccc3O)C(=O)N21`, the GI50 (786-0) is reported as > 100 µM (inactive), the GI50 (A498) is reported as > 100 µM (inactive) and the GI50 (A549) is reported as > 100 µM (inactive). For the same molecule, the GI50 (ACHN) was > 100 µM (inactive), the GI50 (CAKI-1) was > 100 µM (inactive) and the GI50 (CCRF-CEM) was > 100 µM (inactive). For the same molecule, the GI50 (COLO 205) was > 100 µM (inactive), the GI50 (DU-145) was > 100 µM (inactive) and the GI50 (EKVX) was > 100 µM (inactive). The GI50 (HCC 2998) was 95.7 µM (inactive), the GI50 (HCT-116) was > 100 µM (inactive) and the GI50 (HCT-15) was 51.1 µM. The GI50 (HL-60) was 41.6 µM (inactive), the GI50 (HOP-92) was 51.8 µM (inactive) and the GI50 (HT-29) was > 100 µM (inactive). For the same molecule, the GI50 (Hs-578T) was > 100 µM (inactive), the GI50 (IGROV-1) was > 100 µM (inactive) and the GI50 (K562) was 52.2 µM (inactive). For the same molecule, the GI50 (KM12) was > 100 µM (inactive), the GI50 (LOX IMVI) was > 100 µM (inactive) and the GI50 (M14) was > 100 µM (inactive). The GI50 (MCF7) was > 100 µM (inactive), the GI50 (MDA-MB-231) was > 100 µM (inactive) and the GI50 (MDA-MB-435) was > 100 µM (inactive). The GI50 (MDA-N) was > 100 µM (inactive), the GI50 (MOLT-4) was 31.6 µM (inactive) and the GI50 (Malme-3M) was 84.3 µM (inactive). For the same molecule, the GI50 (NCI-H226) was 59.6 µM (inactive), the GI50 (NCI-H23) was > 100 µM (inactive) and the GI50 (NCI-H460) was 89.3 µM (inactive). For the same molecule, the GI50 (NCI-H522) was 76.2 µM (inactive), the GI50 (NCI/ADR-RES) was > 100 µM (inactive) and the GI50 (OVCAR-4) was 13.5 µM (inactive). For the same molecule, the GI50 (OVCAR-5) was > 100 µM (inactive), the GI50 (OVCAR-8) was > 100 µM (inactive) and the GI50 (RPMI-8226) was 20.5 µM (inactive). The GI50 (RXF 393) was > 100 µM (inactive), the GI50 (SF-268) was > 100 µM (inactive) and the GI50 (SF-295) was > 100 µM (inactive). The GI50 (SF-539) was > 100 µM (inactive), the GI50 (SK-MEL-28) was > 100 µM (inactive) and the GI50 (SK-MEL-5) was 73.6 µM (inactive). For the same molecule, the GI50 (SK-OV-3) was > 100 µM (inactive), the GI50 (SN12C) was > 100 µM (inactive) and the GI50 (SNB-19) was > 100 µM (inactive). For the same molecule, the GI50 (SNB-75) was > 100 µM (inactive), the GI50 (SR) was 35.6 µM (inactive) and the GI50 (SW-620) was > 100 µM (inactive). The GI50 (T47D) was 51.2 µM (inactive), the GI50 (TK-10) was > 100 µM (inactive) and the GI50 (U-251) was > 100 µM (inactive). The GI50 (UACC-257) was > 100 µM (inactive) and the GI50 (UO-31) was > 100 µM (inactive).
